Experimental data: patent US20150352114A1, “MITOTIC KINESIN Eg5 INHIBITING ANTICANCER AGENTS” (THE CLEVELAND CLINIC FOUNDATION, priority 2014, published 2015)

Tested on: 3691 GBM cells
Test: Subcutaneous flank tumor study, 3691 GBM xenograft
Assay type: in vivo, mice
Description: All animal studies described were approved by the Cleveland Clinic Foundation Institutional Animal Care and Use Committee and conducted in accordance with the NIH Guide for the Care and Use of Laboratory Animals. For subcutaneous tumor studies, 1×10^5 freshly dissociated GBM cells from a xenograft originally derived from a primary GBM patient specimen (3691) were injected into the flanks of 10 six week old female athymic nu/nu mice. Tumors were allowed to reach approximately 0.12 cm^3, at which point animals were randomized into either vehicle control (DMSO) group or ispinesib (10 mg/kg given daily for 7 consecutive days by intraperitoneal injection) (Selleck Chemicals, Houston, Tex.). Tumors were monitored and measured daily using perpendicular diameter measurements for 7 days. Tumor volume was calculated using the ellipsoid formula π/6×larger diameter×(smaller diameter)^2. After the last treatment on Day 7, tumors were removed and weighed then processed for immunofluorescence (as described below). For intracranial implantation studies to evaluate tumor initiation by GSCs, the cells were isolated as described below and pre-exposed to drug or vehicle either in vitro or in vivo. For in vitro pre-exposure studies, GSCs from xenograft 3691 were seeded at single cell density and treated with vehicle or ispinesib (3 nM) for 18 hours (300,000 cells per condition). Drug was then washed off and 2,500 or 25,000 viable GSCs were implanted into the right frontal lobes of male NSG mice (n=10 for vehicle, n=7 for ispinesib). For in vivo pre-exposure studies, subcutaneous tumors were established as described above. When tumors reached ˜0.5 cm^3, mice were randomized into a vehicle (DMSO) or ispinesib (10 mg/kg given daily for 3 consecutive days) group. 4 hours after the final treatment, GSCs were isolated as described below and 1,000 or 10,000 viable GSCs were then intracranially implanted into NSG mice (10 mice per group). Mice were monitored daily for neurological impairment at which time they were sacrificed and brains removed to evaluate for tumor development. […]

SMILES: Cc1ccc(C(=O)N(CCCN)[C@@H](c2nc3cc(Cl)ccc3c(=O)n2Cc2ccccc2)C(C)C)cc1 [ispinesib, N-(3-amino-propyl)-n-[R-1-(3-benzyl-7-choloro-4-oxo-3,4-dihydroquinazolin-2-yl)-2-methyl-propyl]-4-methyl-benzamide methanesulfonate]
- tumor volume (10 mg/kg daily intraperitoneal, 7 consecutive days): significantly reduced
- tumor weight (10 mg/kg daily intraperitoneal, 7 consecutive days, day 7): significantly reduced
- Sox2 positive cells in end stage tumors (10 mg/kg daily, 7 days): no Sox2 positive cells
